From patent US20160067211A1, “PHARMACEUTICAL COMPOSITION” (Eberhard Karls Universitaet Tuebingen Medizinische Fakultaet, priority 2013, published 2016)

Experiments:
BLM melanoma cells [1] = experiment: MUH proliferation assay, BLM; assay type: cell-based, human; details: addition of 5 μM IM-54 to 6-PN/8-PN treatment
Method: (§1) FIG. 5: real time cell monitoring of BLM and SK-MEL-28 melanoma cells treated with 6-PN and 8-PN. (A) BML and SK-MEL-28 cells were treated 24 hours after seeding with different concentrations of 6-PN and 8-PN (20 μM, 50 μM and 100 μM) over a 104 hour time period. The cellular impedance was measured over the entire observation time using the xCELLigence™ SP system and is depicted by the cell index (CI). All CI-values were normalized shortly before the treatment started. […] As a positive control, Triton X-100 0.1% was used to induce cell death. Shown are the mean±SD of three independent experiments, each performed in triplicates (B, C). […] Shown are the mean±SD; the experiments were performed in quadruplicates. (D) The MUH proliferation assay was repeated unter the same treatment conditions on primary human fibroblasts (FF868) and melanocytes (HEM1).
(§2) The cells were seeded in triplicates in 96-well plates at a density of 2,500 cells per well in 50 μl medium (5×10^4 cells per milliliter). […] Plates were incubated at 37° C. for 1 hour and measured in a Fluoroskan II (Lab Systems, Helsinki, Finland) with a […]. The intensity of fluorescence indicates the number of viable cells in the wells. […]

SK-MEL-28 melanoma cells [2] = experiment: MUH proliferation assay, SK-MEL-28; assay type: cell-based, human; details: SK-MEL-28, addition of 5 μM IM-54 to 6-PN/8-PN treatment
Method: as §1, §2

[3] = system: foreskin melanocytes (HEM1); experiment: MUH proliferation assay, melanocytes; assay type: cell-based; details: 6-PN, 8-PN at higher concentrations (0.1 μM to 100 μM tested); TSA, SAHA 100 μM
Method: as §1
(§3) The cells were seeded in triplicates in 96-well plates at a density of 2,500 cells per well in 50 μl medium (5×10^4 cells per milliliter). After 24 hours, the medium was replaced by medium containing 6-PN, 8-PN (dissolved in DMSO), TSA (dissolved in EtOH) or SAHA (dissolved in DMSO) at the concentrations to be tested with or without the addition of the necrosis inhibitor IM-54 at 5 μM (Calbiochem, Darmstadt, Germany). Cells treated with culture medium without or with DMSO served as controls. The assay was started following an incubation of 24 hours. […] Plates were incubated at 37° C. for 1 hour and measured in a Fluoroskan II (Lab Systems, Helsinki, Finland) with a […]. The intensity of fluorescence indicates the number of viable cells in the wells.
(§4) Next it was asked whether the PNs also influence the proliferation of benign cells. To this end, human fibroblasts (FF) and foreskin melanocytes (HEM1) were treated with the same concentrations of 6-PN and 8-PN, and proliferation was assessed using the proliferation assay as described above.

[4] = system: cleaved caspase-3 in SK-MEL-28 melanoma cells; experiment: Western blot for cleaved caspase-3; assay type: cell-based, human; details: SK-MEL-28, 100 μM
Method: Western blot analysis of SK-MEL-28 melanoma cells treated with 100 μM of 6-PN, 8-PN, SAHA or TSA. EtOH and DMSO were applied as controls.
The following antibodies were used: Anti-Vinculin and Anti-Actin (1:5000, Sigma-Aldrich), Anti-Acetyl-Histon H3 (1:5000, Millipore, Billerica, USA), Anti-Caspase-3 (1:1000), Anti-AKT, Anti-pAKT, Anti-ERK, Anti-pERK, […], Anti-p70S6 Kinase, and Anti-pS6 protein (1:1000), all from Cell Signaling, Frankfurt, Germany), Anti-LC3 (1:5000, Sigma-Aldrich).
To further analyze the type of cell death induced by 6-PN and 8-PN, western blot analyses of SK-MEL-28 melanoma cells were performed 1, 2, 4, 12 and 24 hours after the treatment with 100 μM 6-PN and 8-PN. […] Upon PN treatment an inconsistent expression of oncogenic AKT and phospho-AKT (pAKT) was detected. […] Thus, there was an obvious discrepancy between the expression of pAKT and pS6P. Therefore it was first also looked for the expression of P70S6 kinase and its phosphorylated form. […] Therefore it was next asked whether the S6P could be phosphorylated by a different mechanism. In this respect, activated ERK can phosphorylate the p90 ribosomal S6 kinase (pP90). pP90 also phosphorylates the S6P (in addition to the P70S6 kinase). Since the pP70S6 kinase was absent in the used cells (SK-MEL-28 and BLM), it was hypothesized that the phosphorylation of the S6P was conducted via the pERK/pP90 pathway, independent from the P70S6 signalling. This hypothesis was supported by the parallel down-regulation of the bands for pP90 (Thr359/Ser363) and pS6P 12 hours after the treatment with 6-PN, and the reappearance of both bands after 24 hours (FIG. 8). […] The western blot experiments were repeated with BLM cells under the same treatment conditions and yielded similar results (not shown).

[5] = system: primary human fibroblasts (FF868); experiment: MUH proliferation assay, fibroblasts; assay type: cell-based; details: 6-PN, 8-PN 0.1 μM to 100 μM; TSA, SAHA 100 μM
Method: as §1, §3, §4

SK-MEL-28 melanoma cells [6] = experiment: PI/Annexin V staining FACS, SK-MEL-28; assay type: cell-based, human; details: SK-MEL-28, 10 μM, 6 hours treatment
Method: (§5) (A) Cell cycle FACS analyses of PI stained BLM and SK-MEL-28 melanoma cells. 100 μM of 8-PN-induced a G2 arrest in both cells. (B) FACS analyses of BLM and SK-MEL-28 melanoma cells treated with 100 μM 6-PN or 8-PN and stained for annexin V/PI; staurosporin was used as control for apoptosis induction and DMSO as vehicle control. […] (C) BLM and SK-MEL-28 melanoma cells were treated with 100 μM of PNs; TSA, SAHA and EMSO were used as controls.
(§6) To further analyze the possibility of apoptosis induction, an extensive apoptosis assay was performed on SK-MEL-28 melanoma cells 4 hours after treatment with 100 μM 6-PN or 8-PN (FIG. 9). […] This was verified by FACS cell cycle analyses to screen for a possible increase of the sub-G1 fraction of cells (apoptotic cells) or for the induction of a G2 arrest (inhibition of proliferation). […] To further differentiate between the induction of apoptosis and/or necrosis an PI/Annexin V staining of SK-MEL-28 and BLM cells was performed 4 hours and 24 hours after the treatment with 6-PN or 8-PN; 10 μM staurosporin (6 hours treatment) was used as positive control for the induction of apoptosis; DMSO treatment was used as vehicle control. The cells were then analyzed by FACS.

BLM melanoma cells [7] = experiment: PI/Annexin V staining FACS, BLM; assay type: cell-based, human; details: 10 μM, 6 hours treatment
Method: as §5, §6

Structure (SMILES)	melanocyte proliferation [3]	band for cleaved caspase-3 [4]	fibroblast proliferation [5]	also measured
CCCCCNC1=C(c2cn(C)c3ccccc23)C(=O)N(C)C1=O [IM-54]				decrease of cell death rates at higher PN concentrations (BLM melanoma cells [1]): up to 35%; decrease of cell death rates at higher PN concentrations (SK-MEL-28 melanoma cells [2]): up to 35%
O=C(CCCCCCC(=O)Nc1ccccc1)NO [SAHA, suberoyl anilide hydroxamic acid]	no reduced proliferation	no additional band	no reduced proliferation	
CC(/C=C/C(=O)NO)=C\[C@@H](C)C(=O)c1ccc(N(C)C)cc1 [TSA, trichostatin A]	no reduced proliferation	no additional band	no reduced proliferation	
CN[C@@H]1C[C@H]2O[C@@](C)([C@@H]1OC)n1c3ccccc3c3c4c(c5c6ccccc6n2c5c31)C(=O)NC4 [staurosporin, reference compound]				annexin V positive (apoptotic) cells (SK-MEL-28 melanoma cells [6]; DMSO control 2.5%): 13.9%; PI positive (nectrotic) cells (SK-MEL-28 melanoma cells [6]; DMSO control 7.9%): 9.3%; annexin V positive (apoptotic) cells (BLM melanoma cells [7]; DMSO control 4.1%): 17.4%; PI positive (nectrotic) cells (BLM melanoma cells [7]; DMSO control 9.1%): 16.6%
